In patent US12077503B2, “Substituted cyclic amides and their use as herbicides” (FMC CORPORATION, priority 2015, dated 2024):

How the values were obtained:
Assay type in all cases: in vivo
[1] = system: ryegrass, Italian (Italian ryegrass, Lolium multiflorum); assay: Test A preemergence; conditions: Lolium multiflorum, pre-emergence, 240 h, 0 to 100 scale where 0 is no effect and 100 is complete control, read-out: Ryegrass, Italian plant response rating
How it was run: (§1)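 Seeded soil received test chemicals as a preemergence directed spray, and seedlings at one to two leaves, 2–10 cm tall, received them postemergence, in a non-phytotoxic, surfactant-containing solvent mixture. Pots were held in a greenhouse for approximately 10 d, then rated for injury from 0, no effect, to 100, complete control.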

[2] = system: giant foxtail (Setaria faberii); assay: Test A preemergence; conditions: Setaria faberi, pre-emergence, 240 h, 0 to 100 scale where 0 is no effect and 100 is complete control, read-out: Foxtail, Giant plant response rating
How it was run: as §1

[3] = system: barnyardgrass (Echinochloa crus-galli); assay: Test A preemergence; conditions: Echinochloa crus-galli, pre-emergence, 240 h, 0 to 100 scale where 0 is no effect and 100 is complete control, read-out: Barnyardgrass plant response rating
How it was run: as §1

Kochia (Kochia scoparia) [4] = assay: Test A preemergence; conditions: Bassia scoparia, pre-emergence, 240 h, 0 to 100 scale where 0 is no effect and 100 is complete control, read-out: Kochia plant response rating
How it was run: as §1

[5] = system: pigweed (Amaranthus retroflexus); assay: Test A preemergence; conditions: Amaranthus retroflexus, pre-emergence, 240 h, 0 to 100 scale where 0 is no effect and 100 is complete control, read-out: Pigweed plant response rating
[6] = system: ragweed (common ragweed, Ambrosia elatior); assay: Test A preemergence; conditions: Ambrosia artemisiifolia, pre-emergence, 240 h, 0 to 100 scale where 0 is no effect and 100 is complete control, read-out: Ragweed plant response rating
How it was run: as §1

rice (Oryra sativa) = assay: Test B flooded paddy test; conditions: Oryza sativa, 250 g ai/ha, Flood; 0 to 100 scale where 0 is no effect and 100 is complete control; read-out: Rice plant response rating
How it was run: (§2)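 2-leaf plants; pots flooded 3 cm over soil; cpd added to paddy water; depth held; greenhouse 13–15 d; visual rating vs controls, 0 = no effect, 100 = complete control.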

[7] = system: ducksalad (Heteranthera limosa); assay: Test B flooded paddy test; conditions: Heteranthera limosa, 250 g ai/ha, Flood; 0 to 100 scale where 0 is no effect and 100 is complete control; read-out: Ducksalad plant response rating
How it was run: as §2

[8] = system: barnyardgrass (Echinochloa crus-galli); assay: Test B flooded paddy test; conditions: Echinochloa crus-galli, 250 g ai/ha, Flood; 0 to 100 scale where 0 is no effect and 100 is complete control; read-out: Barnyardgrass plant response rating
How it was run: as §2

[9] = system: sedge, umbrella (small-flower umbrella sedge, Cyperus difformis); assay: Test B flooded paddy test; conditions: Cyperus difformis, 250 g ai/ha, Flood; 0 to 100 scale where 0 is no effect and 100 is complete control; read-out: Sedge, Umbrella plant response rating
How it was run: as §2

[10] = system: Galium (catchweed bedstraw, Galium aparine); assay: Test A postemergence; conditions: Galium, post-emergence, 240 h, read-out: Galium plant response rating (0 to 100 scale)
How it was run: as §1

[11] = system: wheat (Triticum aestivum); assay: Test A postemergence; conditions: Triticum aestivum, post-emergence, 240 h, Postemergence, 31 g ai/ha; 0 is no effect, 100 is complete control; read-out: Wheat plant response rating (0 to 100 scale)
How it was run: as §1

[12] = system: ryegrass, Italian (Italian ryegrass, Lolium multiflorum); assay: Test A postemergence; conditions: Lolium multiflorum, post-emergence, 240 h, read-out: Ryegrass, Italian plant response rating (0 to 100 scale)
How it was run: as §1

[13] = system: giant foxtail (Setaria faberii); assay: Test A postemergence; conditions: Setaria faberi, post-emergence, 240 h, read-out: Foxtail, Giant plant response rating (0 to 100 scale)
How it was run: as §1

[14] = system: barnyardgrass (Echinochloa crus-galli); assay: Test A postemergence; conditions: Echinochloa crus-galli, post-emergence, 240 h, read-out: Barnyardgrass plant response rating (0 to 100 scale)
How it was run: as §1

Kochia (Kochia scoparia) [15] = assay: Test A postemergence; conditions: Bassia scoparia, post-emergence, 240 h, read-out: Kochia plant response rating (0 to 100 scale)
How it was run: as §1

[16] = system: pigweed (Amaranthus retroflexus); assay: Test A postemergence; conditions: Amaranthus retroflexus, post-emergence, 240 h, read-out: Pigweed plant response rating (0 to 100 scale)
How it was run: as §1

corn (Zea mays) = assay: Test A postemergence; conditions: Zea mays, post-emergence, 240 h, read-out: Corn plant response rating (0 to 100 scale)
How it was run: as §1

[17] = system: blackgrass (Alopecurus myosuroides); assay: Test A postemergence; conditions: Alopecurus myosuroides, post-emergence, 240 h, read-out: Blackgrass plant response rating (0 to 100 scale)
How it was run: as §1

[18] = system: ragweed (common ragweed, Ambrosia elatior); assay: Test A postemergence; conditions: Ambrosia artemisiifolia, post-emergence, 240 h, read-out: Ragweed plant response rating (0 to 100 scale)
How it was run: as §1

[19] = 125 g ai/ha, preemergence, visual injury rating, approximately 10 d
[20] = 125 g ai/ha, postemergence, visual injury vs untreated controls after approx. 10 d, 0 = no effect, 100 = complete control
[21] = Postemergence, 31 g ai/ha, 0 is no effect, 100 is complete control

With CN1C[C@H](c2ccc(F)c(Oc3ccccc3)c2)[C@@H](C(=O)Nc2cccc(F)c2F)C1=O [Compound 1259] the pest or weed control at 31 g/ha ([1]; 31 g ai/ha, Preemergence) was 0%, the pest or weed control at 125 g/ha [1, 19] was 30% and the pest or weed control at 31 g/ha ([2]; 31 g ai/ha, Preemergence) was 40%. The pest or weed control at 125 g/ha [2, 19] was 90%, the pest or weed control at 31 g/ha ([3]; 31 g ai/ha, Preemergence) was 0% and the pest or weed control at 125 g/ha [3, 19] was 60%. It also gave a pest or weed control at 31 g/ha (Kochia (Kochia scoparia) [4]; 31 g ai/ha, Preemergence) of 0%, a pest or weed control at 125 g/ha (Kochia (Kochia scoparia) [4]; [19]) of 0% and a pest or weed control at 31 g/ha ([5]; 31 g ai/ha, Preemergence) of 30%. The pest or weed control at 125 g/ha [5, 19] was 30%, the pest or weed control at 31 g/ha ([6]; 31 g ai/ha, Preemergence) was 0% and the pest or weed control at 125 g/ha [6, 19] was 0%. It also gave a pest or weed control at 250 g/ha (rice (Oryra sativa)) of 0%, a pest or weed control at 250 g/ha [7] of 0% and a pest or weed control at 250 g/ha [8] of 0%. The pest or weed control at 250 g/ha [9] was 0%, the pest or weed control at 125 g/ha [10, 20] was 80% and the pest or weed control at 31 g/ha [10, 21] was 60%. For the same compound, the plant injury at 31 g/ha [11] was 0%, the pest or weed control at 125 g/ha [12, 20] was 0% and the pest or weed control at 31 g/ha [12, 21] was 0%. For the same compound, the pest or weed control at 125 g/ha [13, 20] was 70%, the pest or weed control at 31 g/ha [13, 21] was 30% and the pest or weed control at 125 g/ha [14, 20] was 80%. It also gave a pest or weed control at 31 g/ha [14, 21] of 30%, a pest or weed control at 125 g/ha (Kochia (Kochia scoparia) [15]; [20]) of 0% and a pest or weed control at 31 g/ha (Kochia (Kochia scoparia) [15]; [21]) of 0%. The pest or weed control at 125 g/ha [16, 20] was 60%, the pest or weed control at 31 g/ha [16, 21] was 40% and the plant injury at 125 g/ha (corn (Zea mays); [20]) was 70%. For the same compound, the plant injury at 31 g/ha (corn (Zea mays); [21]) was 0%, the pest or weed control at 125 g/ha [17, 20] was 0% and the pest or weed control at 31 g/ha [17, 21] was 0%. It also gave a pest or weed control at 125 g/ha [18, 20] of 0% and a pest or weed control at 31 g/ha [18, 21] of 0%.
